Data reported in patent US9458113B2 (Boehringer Ingelheim International GmbH, priority 2014, dated 2016).
≈ marks a conversion by molar mass, not a printed value.

Tests used:
human hepatocytes = experiment: Metabolic stability with human hepatocytes; type: in vitro ADME; conditions: 1 μM test compound, well stirred model
Experimental: Assay for the Determination of Metabolic Stability with Human Hepatocytes
The metabolic degradation of the test compound is assayed in a human hepatocyte suspension. Human hepatocytes (typically cryopreserved) are incubated in an appropriate buffer system (e.g. Dulbecco's modified eagle medium plus 3.5 μg glucagon/500 mL, 2.5 mg insulin/500 mL and 3.75 mg/500 mL hydrocortison) containing 5% species serum. Following a (typically) […] preincubation in an incubator (37° C., 10% CO2), 5 μl of test compound solution (80 μM; from […] stock solution in DMSO diluted 1:25 with medium) are added into 395 μl hepatocyte suspension (cell density in the range 0.25-5*10^6 cells/mL, typically 1*10^6 cells/mL; final concentration of test compound 1 μM, final DMSO concentration 0.05%). The cells are incubated for six hours (incubator, orbital shaker) and samples (25 μl) are taken at 0, 0.5, 1, 2, 4 and 6 hours. Samples are transferred into acetonitrile and pelleted by centrifugation (5 min) The supernatant is transferred to a new 96-deepwell plate, evaporated under nitrogen and resuspended. The decline of parent compound is analyzed by LC-MS/MS.
The intrinsic clearance CL_[…] is calculated as follows: CL_[…]=Dose/AUC=(C0/CD)/(AUD+clast/k)*1,000/60
(C0: initial concentration in the incubation [μM], CD: cell density of vital cells [10^6 cells/mL], AUD: area under the data [μM*h], clast: concentration of last data point [μM], k: slope of the regression line for parent decline [h^−1])
The calculated in vitro hepatic intrinsic clearance Qh can be scaled up to the intrinsic in vivo hepatic clearance and used to predict hepatic in vivo blood clearance (CL) by the use of a liver model (well stirred model): CL_[…]_INVIVO [ml/min/kg]=(CL_[…] [μL/min/10^6 cells]*hepatocellularity [10^6 cells/g liver]*liver factor [g/kg bodyweight])/1,000 CL [ml/min/kg]=CL_[…]_INVIVO [ml/min/kg]*hepatic blood flow [ml/min/kg]/(CL_[…]_INVIVO [ml/min/kg]+hepatic blood flow [ml/min/kg]) Qh [%]=CL [ml/min/kg]/hepatic blood flow [ml/min/kg])
(Hepatocellularity, human: 120*10^6 cells/g liver; liver factor, human: 25.7 g/kg bodyweight; blood flow, human: 21 ml/(min*kg))
The calculated in-vitro hepatic intrinsic clearance values of selected compounds in the metabolic stability assay with human hepatocytes described above are listed in Table 15.

[1] = Drug transport across human Caco-2 cells; type: in vitro ADME; conditions: apparent permeability coefficient, Caco-2 monolayers, pH 7.2, 37° C.; for Papp A→B at 10 µM: apical-to-basal (absorptive), read-out: PEAB; for Papp B→A at 10 µM: basal-to-apical (secretory), read-out: PEBA
Excerpt: Assay for Determination of Drug Transport Across Human Caco-2 Cells
The assay provides information on the potential of a compound to pass the cell membrane, on the extent of oral absorption as well as on whether the compound is actively transported by uptake and/or efflux transporters. For the measurement of permeability across polarized, confluent human cancer colon carcinoma cells 2 (Caco-2) cell monolayers grown on permeable filter supports are used as the in vitro absorption model.
Apparent permeability coefficients (PE) of the compounds across the Caco-2 monolayers are measured (pH 7.2, 37° C.) in apical-to-basal (AB) (absorptive) and basal-to-apical (BA) (secretory) transport direction. AB permeability (PEAB) represents drug absorption from the intestine into the blood and BA permeability (PEBA) drug secretion from the blood back into the intestine via both passive permeability as well as active transport mechanisms mediated by efflux and uptake transporters that are expressed on the Caco-2 cells. The compounds are assigned to permeability/absorption classes by comparison of the AB permeabilities with the AB permeabilities of reference compounds with known in vitro permeability and oral absorption in the human. Identical or similar permeabilities in both transport directions indicate passive permeation, vectorial permeability points to additional active transport mechanisms. […] Active transport is concentration-dependently saturable.
Caco-2 cells (1-2*10^5 cells/cm^2 area) are seeded on filter inserts (Costar transwell polycarbonate or PET filters, 0.4 μm pore size) and cultured (DMEM) for 10 to 25 days. Compounds are dissolved in appropriate solvent (like DMSO, […] stock solutions). Stock solutions are diluted with HTP-4 buffer (128.13 mM NaCl, 5.36 mM KCl, 1 mM MgSO4, 1.8 mM CaCl2, 4.17 mM NaHCO3, 1.19 mM Na2HPO4x7H2O, 0.41 mM NaH2PO4xH2O, 15 mM HEPES, 20 mM glucose, pH 7.2) to prepare the transport solutions (typically 10 μM compound, final DMSO<=0.5%). The transport solution (TL) is applied to the apical or basolateral donor side for measuring A-B or B-A permeability (3 filter replicates), respectively. The receiver side contains HTP-4 buffer supplemented with 2% BSA. Samples are collected at the start and end of experiment from the donor and at various time intervals for up to 2 hours also from the receiver side for concentration measurement by LC-MS/MS or scintillation counting. Sampled receiver volumes are replaced with fresh receiver solution.
The apparent permeability coefficients (PEAB and PEBA) of selected compounds in the Caco-2 drug transport assay described above are listed in Table 16.

[2] = biological target: Human neutrophil elastase (Homo sapiens (Human), UniProt P08246); experiment: Human Neutrophil Elastase Assay; type: biochemical; conditions: substrate MeOSuc-Ala-Ala-Pro-Val-AMC 250 μM, pH 7.5
Chain of Human neutrophil elastase (P08246 30-247): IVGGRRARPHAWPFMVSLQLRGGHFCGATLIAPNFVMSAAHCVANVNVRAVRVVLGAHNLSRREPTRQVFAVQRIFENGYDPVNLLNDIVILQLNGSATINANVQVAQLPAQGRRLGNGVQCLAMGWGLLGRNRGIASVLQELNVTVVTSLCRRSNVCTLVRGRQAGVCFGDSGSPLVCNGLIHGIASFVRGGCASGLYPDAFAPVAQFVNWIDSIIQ

[3] = biological target: neutrophil elastase in zymosan-stimulated human plasma (Homo sapiens (Human), UniProt P08246); experiment: Neutrophil elastase inhibitory activity in human plasma; type: biochemical; conditions: human plasma from zymosan-stimulated blood
Chain of neutrophil elastase in zymosan-stimulated human plasma (P08246 30-247): as above

[4] = Metabolic stability with human liver microsomes; type: in vitro ADME; conditions: pH 7.6; pooled human liver microsomes, 1 μM test compound, 37° C.; read-out: t1/2 INVITRO
[5] = Aqueous solubility (Shaked Flask Method); type: physicochemical; conditions: aqueous buffer, thermodynamic from solid, pH 6.8
Experimental: Assay for Determination of Aqueous Solubility (“Shaked Flask Method”)
Saturated solutions are prepared in well plates by adding an appropriate volume of selected aqueous media (typically in the range of 0.25-1.5 ml) into each well which contains a known quantity of solid drug substance (typically in the range 0.5-5.0 mg). The wells are shaken or stirred for a predefined time period (typically in a range of 2-24 h) and then filtered using appropriate filter membranes (typically PTFE-filters with 0.45 μm pore size). Filter absorption is avoided by discarding the first few drops of filtrate. The amount of dissolved drug substance is determined by UV spectroscopy or by HPLC with UV-detection. In addition, the pH of the aqueous saturated solution is measured using a glass-electrode pH meter.

[6] = Aqueous solubility (High Throughput Method); type: physicochemical; conditions: McIlvaine buffer pH 6.8 with 2.5% DMSO, kinetic from dmso stock, McIlvaine buffer pH 6.8, 2.5% DMSO, 24 h shaking
Experimental: Assay for Determination of Aqueous Solubility (“High Throughput Method”)
Starting from a […] DMSO stock solution, aliquots are diluted with acetonitrile/water (1/1) and McIlvaine buffer pH 6.8, respectively. After 24 h of shaking, the solutions or suspensions are filtered and analyzed by LC-UV. The amount dissolved in buffer is compared to the amount dissolved in the acetonitrile/water (1/1) solution. Solubility is measured from 0.001 to 0.125 mg/ml at a DMSO concentration of 2.5%. If more than 90% of the compound is dissolved in buffer, the value is marked with “>”.

Row | Compound | Papp A→B at 10 µM [1] [×10⁻⁶ cm/s] | Papp B→A at 10 µM [1] [×10⁻⁶ cm/s] | IC50 [2] [nM] | EC50 [3] [nM] | half-life at 1 μM [4] [min] | also measured
1 | CN1C(=O)N(c2cccc(C(F)(F)F)c2)C2=C(C(=O)CCC2)C1c1ccc(C#N)cc1-c1ccn(C)c(=O)c1 (single isomer, unassigned) [Example 20.b, 4-[3-Methyl-2,5-dioxo-1-(3-trifluoromethyl-phenyl)-1,2,3,4,5,6,7,8-octahydro-quinazolin-4-yl]-3-(1-methyl-2-oxo-1,2-dihydro-pyridin-4-yl)-benzonitrile] | 6.2 | 95 | – | – | – | Qh (human hepatocytes): 5%
2 | CN1C(=O)N(c2cccc(C(F)(F)F)c2)C2=C(C(=O)CCC2)[C@H]1c1ccc(C#N)cc1-c1ccn(C)c(=O)c1 [Example 20.b, 4-[3-Methyl-2,5-dioxo-1-(3-trifluoromethyl-phenyl)-1,2,3,4,5,6,7,8-octahydro-quinazolin-4-yl]-3-(1-methyl-2-oxo-1,2-dihydro-pyridin-4-yl)-benzonitrile] | – | – | < 1 | 1 | > 130 | solubility [5]: > 10 µg/mL; solubility at 24 h [6]: 72 µg/mL (≈ 135 µM)
3 | CN1C(=O)N(c2cccc(C(F)(F)F)c2)C2=C(C(=O)CC2)[C@H]1c1ccc(C#N)cc1CNC1CCOCC1 [Example 25, 4-[(R)-3-Methyl-2,5-dioxo-1-(3-trifluoromethyl-phenyl)-2,3,4,5,6,7-hexahydro-1H-cyclopentapyrimidin-4-yl]-3-[(tetrahydro-pyran-4-ylamino)-methyl]-benzonitrile] | 16 | 96 | 1.9 | 7 | > 130 | solubility [5]: > 10 µg/mL; Qh (human hepatocytes): 20%
4 | CNC(=O)c1cc(C#N)ccc1[C@@H]1C2=C(CCC2=O)N(c2cccc(C(F)(F)F)c2)C(=O)N1C [Example 2.1] | 14 | 78 | 1.8 | 2 | > 130 | Qh (human hepatocytes): 9%
5 | CN1C(=O)N(c2cccc(C(F)(F)F)c2)C2=C(C(=O)CC2)C1c1ccc(C#N)cc1-c1cnco1 (stereo not shown) [Example 10, 4-[3-Methyl-2,5-dioxo-1-(3-trifluoromethyl-phenyl)-2,3,4,5,6,7-hexahydro-1H-cyclopentapyrimidin-4-yl]-3-oxazol-5-yl-benzonitrile] | – | – | 1.2 | – | – | –
6 | CN1C(=O)N(c2cccc(C(F)(F)F)c2)C2=C(C(=O)CC2)C1c1ccc(C#N)cc1C(=O)N1CC(O)C1 (stereo not shown) [Example 1.11] | – | – | 2.5 | – | – | –
7 | CN1C(=O)N(c2cccc(C(F)(F)F)c2)C2=C(C(=O)CC2)C1c1ccc(C#N)cc1C(=O)NC1CCS(=O)(=O)C1 (stereo not shown) [Example 1.28] | – | – | 4.3 | – | – | –
8 | CN1C(=O)N(c2cccc(C(F)(F)F)c2)C2=C(C(=O)CC2)C1c1ccc(C#N)cc1C(=O)NCc1cocn1 (stereo not shown) [Example 1.44] | – | – | 3.4 | – | – | –
9 | CN(Cc1nccn1C)C(=O)c1cc(C#N)ccc1C1C2=C(CCC2=O)N(c2cccc(C(F)(F)F)c2)C(=O)N1C (stereo not shown) [Example 1.74] | – | – | < 1 | – | – | –
10 | CC(=O)N(C)[C@@H]1CCN(C(=O)c2cc(C#N)ccc2C2C3=C(CCC3=O)N(c3cccc(C(F)(F)F)c3)C(=O)N2C)C1 (stereo partly shown) [Example 1.78] | – | – | 2.6 | – | – | –

The next lines start with results.

Row | Papp A→B at 10 µM [1] [×10⁻⁶ cm/s] | Papp B→A at 10 µM [1] [×10⁻⁶ cm/s] | IC50 [2] [nM] | EC50 [3] [nM] | half-life at 1 μM [4] [min] | Compound | also measured
11 | 61 | 76 | < 1 | 2 | 120 | CN1C(=O)N(c2cccc(C(F)(F)F)c2)C2=C(C(=O)CC2)C1c1ccc(C#N)cc1-c1cnn(C)c1 (stereo not shown) [Example 11.2] | Qh (human hepatocytes): 24%
12 | 3.5 | 57 | 1.2 | 4 | > 130 | CN1C(=O)N(c2cccc(C(F)(F)F)c2)C2=C(C(=O)CCC2)C1c1ccc(C#N)cc1-c1ccn(C)c(=O)c1 (stereo not shown) [Example 15.8, 4-[3-Methyl-2,5-dioxo-1-(3-trifluoromethyl-phenyl)-1,2,3,4,5,6,7,8-octahydro-quinazolin-4-yl]-3-(1-methyl-2-oxo-1,2-dihydro-pyridin-4-yl)-benzonitrile] | –
13 | 49 | 72 | 2.2 | 2 | > 130 | Cc1nnc(-c2cc(C#N)ccc2C2C3=C(CCC3=O)N(c3cccc(C(F)(F)F)c3)C(=O)N2C)o1 (stereo not shown) [Example 13.1, 4-[3-Methyl-2,5-dioxo-1-(3-trifluoromethyl-phenyl)-2,3,4,5,6,7-hexahydro-1H-cyclopentapyrimidin-4-yl]-3-(5-methyl-[1,3,4]oxadiazol-2-yl)-benzonitrile] | Qh (human hepatocytes): 16%
14 | – | – | 2.4 | – | – | CN1C(=O)N(c2cccc(C(F)(F)F)c2)C2=C(C(=O)CCC2)C1c1ccc(C#N)cc1-c1cnn(C)c1 (stereo not shown) [Example 15.2] | –
15 | – | – | 5.1 | – | – | CN1CCN(C(=O)c2cc(C#N)ccc2C2C3=C(CCCC3=O)N(c3cccc(C(F)(F)F)c3)C(=O)N2C)CC1 (stereo not shown) [Example 6.2] | –
16 | – | – | 5.6 | – | – | CN1C(=O)N(c2cccc(C(F)(F)F)c2)C2=C(C(=O)CC2)C1c1ccc(C#N)cc1C(=O)N[C@H]1C[C@@H]1N (stereo partly shown) [Example 4.13] | –
17 | – | – | 1.1 | – | – | CN(C)C(=O)c1cc(C#N)ccc1C1C2=C(CCCC2=O)N(c2cccc(C(F)(F)F)c2)C(=O)N1C (stereo not shown) [Example 6.4] | –
18 | – | – | 6 | – | – | CN1C(=O)N(c2cccc(C(F)(F)F)c2)C2=C(C(=O)CC2)C1c1ccc(C#N)cc1-c1ccc2c(ccn2C)c1 (stereo not shown) [Example 11.14] | –
